Holding throughout (type): cell-based, human
One experiment relates to NCI-H460/R cells. The experiment can be described thus: Cytotoxicity by immunofluorescence cell scoring (cell counts), multidrug-resistant NSCLC cell line. Conditions: for IC50: 24 h treatment. From the text: Human non-small cell lung carcinoma cells (NCI-H460) were purchased from the American Type Culture Collection (Rockville, MD, USA), and normal embryonic lung fibroblasts (MRC-5) were purchased from the European Collection of Authenticated Cell Cultures (Salisbury, UK). Multidrug-resistant NCI-H460/R cells overexpressing ABCB1 were selected from the NCI-H460 cells after selective pressure with doxorubicin [21]. All the cell lines were maintained in MEM medium (Sigma-Aldrich Chemie GmbH, Taufkirchen, Germany) supplemented with 10% FBS, 2 mM L-glutamine, and antibiotic-antimycotic solution. All the cell lines were maintained at 37 °C in a humidified atmosphere with 5% CO2.
(§1) Vinorelbine and pemetrexed were purchased from Selleckchem (Houston, TX, USA). Carboplatin, cisplatin, docetaxel, etoposide, gemcitabine, gefitinib, and paclitaxel were purchased from Sigma-Aldrich Chemie GmbH (Taufkirchen, Germany). The cisplatin, carboplatin, and gemcitabine were dissolved in sterile water, while the etoposide, docetaxel, vinorelbine, paclitaxel, gefitinib, and pemetrexed were dissolved in DMSO and stored at −20 °C. Before treatment, all the stock solutions were freshly diluted in sterile water.
The compounds were administered 48 h after seeding. The treatment lasted 24 h.
(§2) The immunofluorescence assay for the quantification of MDR markers was optimized to distinguish cancer cells from stromal cells using a cytokeratin 8/18 (CK8/18) antibody cocktail. The cells were fixed with 4% paraformaldehyde for 20 min at RT and washed three times with PBS using the Wellwash Versa microplate washer (Thermo Fisher Scientific, Waltham, MA, USA). The cells were then blocked with 2% bovine serum albumin (BSA) in PBS for 1 h at RT. […] Co-immunostaining with antibodies against MDR markers was performed to detect the presence of ABCB1, ABCC1, and ABCG2 in both the cancer and stromal cells. […] The secondary antibodies were incubated with the cells at RT for 2 h in the dark. […] Finally, the cells were washed three times with PBS and stored at 4 °C in the dark before imaging.
The fluorescently labeled cells were imaged using the ImageXpress Pico Automated Cell Imaging System (Molecular Devices, San Jose, CA, USA) with a 4x objective after determining the appropriate exposure time for each illumination filter. Analysis of the obtained images was performed using CellReporterXpress software v. 2.8.2.669 (Molecular Devices). The cytotoxicity of the compounds was determined using the Cell Scoring Analysis Protocol. […] Expression of MDR markers was determined using the Multi-Wavelength Cell Scoring Analysis Protocol.

Experiment [1] concerns ABCG2 expression in non-cancer cells (CK8/18-). Put plainly: Immunofluorescence assay of ABCG2 expression in patient-derived NSCLC cultures, non-cancer cells. Conditions: 7 days. As to the method: (§3) Tissue samples were collected during surgery, and the NSCLC diagnosis, histological grade, stage, necrosis, and lymph node invasion status were determined by histopathological analysis. […] The surgical specimens were placed in a sterile tube containing antibiotic-antimycotic solution (Sigma-Aldrich Chemie GmbH, Taufkirchen, Germany) and immediately transported to the research laboratory for further processing.
Upon arrival, the tissue was manually chopped with a surgical blade in a Petri dish under sterile conditions. The samples were cut into 3–5 mm pieces and further dissociated using the Tumor Dissociation Kit (Miltenyi Biotec, Bergisch Gladbach, Germany). The Tumor Dissociation Kit was used to dissociate the cells from the tumor tissue according to the manufacturer’s instructions. The samples were incubated in a 37 °C orbital shaker (KS 4000 ic control, IKA, Königswinter, Germany) at 300 rpm for 90 min. […]
The immunofluorescence assay for the quantification of MDR markers was optimized to distinguish cancer cells from stromal cells using a cytokeratin 8/18 (CK8/18) antibody cocktail. […]

Experiment [2] concerns ABCC1 expression in non-cancer cells (CK8/18-). The experiment can be described thus: Immunofluorescence assay of ABCC1 expression in patient-derived NSCLC cultures, non-cancer cells. The settings on record: sample TR58, chemotherapeutics, 7 days. How it is done:
as §3
Upon arrival, the tissue was manually chopped with a surgical blade in a Petri dish under sterile conditions. The samples were cut into 3–5 mm pieces and further dissociated using the Tumor Dissociation Kit (Miltenyi Biotec, Bergisch Gladbach, Germany). The Tumor Dissociation Kit was used to dissociate the cells from the tumor tissue according to the manufacturer’s instructions. The samples were incubated in a 37 °C orbital shaker (KS 4000 ic control, IKA, Königswinter, Germany) at 300 rpm for 90 min. After incubation, the dissociated tissue was placed in DMEM/Ham’s F12 (1:3 ratio) growth medium supplemented with 5% fetal bovine serum (Corning, NY, USA), antibiotic-antimycotic solution, 4 µg/mL hydrocortisone (Sigma-Aldrich Chemie GmbH, Taufkirchen, Germany), 1 µg/mL insulin (Sigma-Aldrich Chemie GmbH, Taufkirchen, Germany), 10 ng/mL epidermal growth factor (BioLegend, San Diego, CA, USA), and 24 µg/mL adenine (Sigma-Aldrich Chemie GmbH, Taufkirchen, Germany). The DMEM and Ham’s F12 growth media were purchased from Sigma-Aldrich Chemie GmbH (Taufkirchen, Germany).
The dissociated tissue was cultured in T-25 cell culture flasks until cell attachment was observed before the medium was replaced. If no cell attachment was achieved within 7 days, the sample was discarded. Successful patient-derived cultures were maintained at 37 °C in a humidified atmosphere with 5% CO2 and grown to confluence before undergoing further experiments. […] Partial trypsinization was performed by detaching the fibroblast-like cells with 1 mL of 0.05% trypsin for 1 min at 37 °C, followed by 2 min at room temperature (RT).
as §1
The primary cells were seeded in black, clear bottom 384-well cell culture microplates (Thermo Fisher Scientific, Waltham, MA, USA) in 50 µL of cell growth medium at a density of 1000 cells per well. The compounds were administered 72 h after seeding. The treatment lasted 7 days.
as §2

Where [3] appears, read: Homo sapiens, NCI-H460/R (co-culture with MRC-5).
Setting [4] is: Homo sapiens, NCI-H460/R monoculture.

The values that follow come from publication PMC10743086, “Immunofluorescence-Based Assay for High-Throughput Analysis of Multidrug Resistance Markers in Non-Small Cell Lung Carcinoma Patient-Derived Cells” (Diagnostics, 2023).

Molecules are shown by their SMILES. Some results are limits rather than exact numbers.

The term IC50 denotes the concentration needed to halve the response being measured. A higher IC50 goes with a need for much substance. In the case of `N.N.[Cl][Pt][Cl]` [Cisplatin, cisplatin], the IC50 with NCI-H460/R cells (NCI-H460/R (co-culture with MRC-5)) came out at 5.6 µM; with NCI-H460/R cells (NCI-H460/R monoculture), 5.33 µM. Also, the “ABCG2 expression in CK8/18− cells” value in experiment [1] (sample TR58, chemotherapeutics) is on record as “increased”.

Regarding `Nc1nc2[nH]cc(CCc3ccc(C(=O)N[C@@H](CCC(=O)O)C(=O)O)cc3)c2c(=O)[nH]1` [Pemetrexed, pemetrexed], the IC50 in the experiment on NCI-H460/R cells (setting [3]) and with NCI-H460/R cells (setting [4]) was more than 300 µM in each case.

As to `CCC1=C[C@@H]2CN(C1)Cc1c([nH]c3ccccc13)[C@@](C(=O)OC)(c1cc3c(cc1OC)N(C)[C@H]1[C@@](O)(C(=O)OC)[C@H](OC(C)=O)[C@]4(CC)C=CCN5CC[C@]31[C@@H]54)C2` [Vinorelbine], the IC50 was 0.839 µM in the experiment on NCI-H460/R cells (setting [3]) and 0.99 µM with NCI-H460/R cells (setting [4]). Further, the “resistance of NCI-H460/R cells compared to the NCI-H460 cells” value in the experiment on NCI-H460/R cells (ratio of IC50 values, monocultures) was found to be 27 fold.

Regarding `CC(=O)O[C@H]1C(=O)[C@@]2(C)[C@H]([C@H](OC(=O)c3ccccc3)[C@]3(O)C[C@H](OC(=O)[C@H](O)[C@@H](NC(=O)c4ccccc4)c4ccccc4)C(C)=C1C3(C)C)[C@]1(OC(C)=O)CO[C@@H]1C[C@@H]2O` [Paclitaxel, paclitaxel], the IC50 in the experiment with NCI-H460/R cells (setting [3]) and with NCI-H460/R cells (setting [4]) was more than 5 µM each time. Besides, the “ABCC1 expression in CK8/18− cells” value in experiment [2] is “elevated”.

In the case of `CC(=O)O[C@@]12CO[C@@H]1C[C@H](O)[C@@]1(C)C(=O)[C@H](O)C3=C(C)[C@@H](OC(=O)[C@H](O)[C@@H](NC(=O)OC(C)(C)C)c4ccccc4)C[C@@](O)([C@@H](OC(=O)c4ccccc4)[C@H]21)C3(C)C` [Docetaxel, docetaxel], the IC50 in the experiment with NCI-H460/R cells (setting [3]) is 0.801 µM; in the experiment with NCI-H460/R cells (setting [4]), 0.704 µM. Further, the “ABCC1 expression in CK8/18− cells” value in experiment [2] was “elevated”.

Turning to `COc1cc([C@@H]2c3cc4c(cc3[C@@H](O[C@@H]3O[C@@H]5CO[C@@H](C)O[C@H]5[C@H](O)[C@H]3O)[C@H]3COC(=O)[C@H]23)OCO4)cc(OC)c1O` [Etoposide, etoposide], the IC50 stood at 7.5 µM in the experiment with NCI-H460/R cells (setting [3]) and 7.92 µM with NCI-H460/R cells (setting [4]).

For `Nc1ccn([C@@H]2O[C@H](CO)[C@@H](O)C2(F)F)c(=O)n1` [Gemcitabine, gemcitabine], the IC50 with NCI-H460/R cells (setting [3]) was 29.4 µM; in the experiment with NCI-H460/R cells (setting [4]), 33.6 µM. Besides, the “ABCC1 expression in CK8/18− cells” value in experiment [2] is on record as “elevated”. Also, the “ABCG2 expression in CK8/18− cells” value in experiment [1] (sample TR65, chemotherapeutics) is on record as “elevated”.
